Literature values as cited in patent publication US10456383B2, “Targeted approach in the management of Epidermolysis bullosa” (The Board of Trustees of the Leland Stanford Junior …, priority 2017, dated 2019).

Columns and labels:
[1] = topical formulations, all cases; standard serum levels required for immunosuppression 5-15 ng/ml
[2] = ointment plasticized base containing no water (PCCA)

For CO[C@H]1C[C@@H]2CC[C@@H](C)[C@@](O)(O2)C(=O)C(=O)N2CCCC[C@H]2C(=O)O[C@H]([C@H](C)C[C@@H]2CC[C@@H](O)[C@H](OC)C2)CC(=O)[C@H](C)/C=C(\C)[C@@H](O)[C@@H](OC)C(=O)[C@H](C)C[C@H](C)/C=C/C=C/C=C/1C [Sirolimus], the “systemic level of rapamycin” value [1] is listed as “less than 2 ng/ml” and the sirolimus stability [2] is listed as “at least 6 months”.
